In US20220206003A1, “BIOMARKERS FOR PREDICTING RESISTANCE TO CANCER DRUGS” (INSTITUT CURIE, priority 2019, published 2022):
Where two headings read alike, the source gives them in different places.

Columns and labels:
[1] = tested on: HBCx-95 xenografts (triple negative breast cancer PDX); test: Capecitabine treatment of HBCx-95 patient-derived xenografts (relative tumor volume, response); type: in vivo, Swiss nude mice; details: HBCx-95 xenograft, mouse #40, oral 540 mg/kg/day, second round after recurrence
Source text: Female Swiss nude mice were purchased from Charles River Laboratories and maintained under specific pathogen-free conditions. Their care and housing were in accordance with institutional guidelines and the rules of the French Ethics Committee (project authorization no. 02163.02). A PDX model of luminal breast cancer (HBCx-22) was previously established at Institut Curie from untreated early-stage luminal breast cancer with informed consent from the patient. Acquisition of a resistant phenotype for a derivative of HBCx-22, HBCx-22-TamR, was previously established and maintained. A PDX from a residual triple negative breast cancer post neo-adjuvant chemotherapy (HBCx-95) was previously established at Institut Curie with informed consent from the patient. HBCx-95 xenografts (n=6) were treated with Capecitabine (Xeloda, Roche Laboratories) orally at a dose of 540 mg/kg/day, 5 days a week for 6 weeks. Relative tumor volumes (RTV, mm3) were calculated. Mice with recurrent tumors were treated for a second round of Capecitabine when PDX reached a volume of over 200 mm^3 (mice #35, #40 & #33).

[2] = tested on: HBCx-22 / HBCx-22-TamR luminal ER+ breast PDX; details: cited from earlier work

Compound	response of recurrent PDX tumor to a second round of Capecitabine [1]	response of PDX to Tamoxifen ([2]; HBCx-22-TamR tumor derivative, previously characterized)	response of PDX to Tamoxifen ([2]; HBCx-22 luminal ER+ breast PDX)
CCCCCOC(=O)Nc1nc(=O)n([C@@H]2O[C@H](C)[C@@H](O)[C@H]2O)cc1F [Capecitabine]	did not respond		
CC/C(=C(\c1ccccc1)c1ccc(OCCN(C)C)cc1)c1ccccc1 [Tamoxifen]		acquired resistance	responsive
